Here are results for three compounds from patent publication US20100086602A1, “PHARMACEUTICAL COMPOSITION CONTAINING STATIN-ENCAPSULATED NANOPARTICLE” (priority 2006, published 2010).

Entries after “also recorded” stand apart in the source; their conditions may differ.

Data set [1] can be described thus: Serological assessment 14 days after hindlimb ischemia. Type of data set: in vivo, mice. As to the method:
(§1) Male C57BL/6J wild-type mice were bred and maintained in the Laboratory of Animal Experiments at Kyushu University. After anesthesia with an intraperitoneal injection of ketamine hydrochloride and xyladine hydrochloride, animals underwent surgical ligation and resection of the left femoral artery to produce unilateral hindlimb ischemia. […] As a control, a group of PLGA-FITC-mice (FITC group) received intramuscular injections of FITC-loaded PLGA nanoparticles (0.16 mg/100 μl), a group of PEG/CS-PLGA-FITC-mice (PEG/CS-FITC group) received intramuscular injections of FITC-loaded PEG/CS PLGA nanoparticles (0.16 mg/100 μl), and another group of mice (NT group) received no treatment.
There were no difference between each group in the total cholesterol, triglyceride, myoglobin, CK, BUN and Cre values in serum.

In data set [2] the test system is unilateral hindlimb ischemia. In words: Laser Doppler perfusion imaging of limb blood flow after hindlimb ischemia. The class given is in vivo, mice. The following applies: single intramuscular injection containing 0.01 mg statin (0.5 mg/kg), days 0, 3, 7 and 14, versus no-treatment. As to the method: (§2) A group of PLGA-Pit-mice (PLGA-Pit group) and a group of PEG/CS-PLGA-Pit-mice (PEG/CS-Pit group) received intramuscular injections of pitavastatin-loaded PLGA nanoparticles (0.18 mg/100 μl) and pitavastatin-loaded PEG/CS-PLGA nanoparticles (0.44 mg/100 μl, each containing 0.01 mg of pitavastatin), respectively. As control, a group of PLGA-mice (PLGA group) received intramuscular injections of PLGA nanoparticles (0.18 mg/100 μl) and another group of mice (NT group) received no treatment.

Data set [3] has as its system hindlimb ischemia. In words: Partial pressure ratio of oxygen in arterial and venous blood during muscular exercise of ischemic hindlimb. Type of data set: in vivo, Japanese rabbit. The following applies: 35 days after ischemia; exercise by electric stimulus for 30 minutes; 0, 15 and 30 minutes. As to the method: Japanese rabbits (2.7 to 3.2 kg) underwent surgical ligation and resection of the unilateral femoral artery to produce hindlimb ischemia. After 7 days, animals were randomized to four groups: PLGA-pitavastatin group, PLGA-FITC group, pitavastatin group and PBS group, and received therapeutic substances by intra-ischemic-muscular injection of 5 ml (concentration of pitavastatin-loaded nanoparticle 6 mg/ml, corresponding to 0.33 mg/ml of pitavastatin). After 28 days from intramuscular injection (35 days after ischemia), animals were performed angiography. Mice were inserted catheters (5 Fr) from right internal carotid artery and the catheters were placed in left internal iliac artery under fluoroscopic control. […] 5 mm of grids were prepared within the range surrounded by lower end of femur (upper end), lower end of quadriceps (lower end), arteria iliaca interna (trunks are not counted, inner end) and distal portion of severed blood vessel (outer end). Angiographic score was calculated by dividing the number of grids in which blood vessel is found by total number of grids.
The effect of nanostatin on insufficient blood from at ischemic hindlimb on muscular exercising is examined. […] The partial pressure ratio of oxygen in arterial and venous blood in each time point was determined. The concentration of hemoglobine was determined at 0 minute. […]

The subject of data set [4] is hindlimb ischemia. Kind of data set: Recovery rate of ischemic tissues, pitavastatin dose comparison (FIG. 15). Type of data set: in vivo, mice. The note with it: intramuscular, one portion; only pitavastatin 0.4, 4 and 20 mg/kg or PLGA-pitavastatin; days 3, 7 and 14. As to the method: The recovery rate of ischemic tissues were determined for ischemic mice injected intramuscularly with only nanoparticles, only pitavastatin (0.4, 4 and 20 mg/kg) or PLGA-pitavastatin in one portion.

In data set [5] the test system is unilateral hindlimb ischemia. In words: Arteriogenesis by immunohistochemical staining with α-SMA. The note with it: day 14 after hindlimb ischemia; 0.01 mg pitavastatin intramuscular. The class given is in vivo, mice. As to the method:
as §2
Arteriogenesis was determined by immunohistochemical staining with α-SMA.

In data set [6] the test system is unilateral hindlimb ischemia. Kind of data set: Capillary density by immunohistochemical staining with anti-mouse PECAM-1 (CD31) antibody. The class given is in vivo, mice. The following applies: day 14 after hindlimb ischemia; 0.01 mg statin intramuscular. As to the method:
as §2

Data set [7] has as its system hindlimb ischemia. Kind of data set: Angiography 35 days after hindlimb ischemia (angiographic score). The class given is in vivo, Japanese rabbits. The note with it: Mean±SE; 35 days after ischemia, 28 days after intramuscular injection of 5 ml (0.33 mg/ml pitavastatin). As to the method: Japanese rabbits (2.7 to 3.2 kg) underwent surgical ligation and resection of the unilateral femoral artery to produce hindlimb ischemia. After 7 days, animals were randomized to four groups: PLGA-pitavastatin group, PLGA-FITC group, pitavastatin group and PBS group, and received therapeutic substances by intra-ischemic-muscular injection of 5 ml (concentration of pitavastatin-loaded nanoparticle 6 mg/ml, corresponding to 0.33 mg/ml of pitavastatin). After 28 days from intramuscular injection (35 days after ischemia), animals were performed angiography. Mice were inserted catheters (5 Fr) from right internal carotid artery and the catheters were placed in left internal iliac artery under fluoroscopic control. 0.25 mg of Millisrol were injected into artery through catheters, followed by injection of imaging agents at the rate of 1 ml/second for 5 seconds to perform angiography. An assessment for the number of blood vessel was carried out by using static images at 3 second after injection of imaging agents. 5 mm of grids were prepared within the range surrounded by lower end of femur (upper end), lower end of quadriceps (lower end), arteria iliaca interna (trunks are not counted, inner end) and distal portion of severed blood vessel (outer end). Angiographic score was calculated by dividing the number of grids in which blood vessel is found by total number of grids.

In data set [8] the test system is muscular tissues of ischemic hindlimb. The arrangement: species or system mice. The note with it: mouse, in vivo. As to the method:
as §1

In the case of `CC(C)c1c(C(=O)Nc2ccccc2)c(-c2ccccc2)c(-c2ccc(F)cc2)n1CC[C@@H](O)C[C@@H](O)CC(=O)O` [atorvastatin], the signs of rhabdomyolysis entry in data set [1] (intramuscularly injected mice) is given as “Neither group of atorvastatin nor atorvastatin-loaded nanoparticle intramuscularly injected mice showed the signs of rhabdomyolysis”. In data set [1] (serum, n = 4), this compound gave a BUN of 30.3 ± 2.8 mg/dL, a CK of 159.0 ± 37.7 IU/L, a Cre of 0.083 ± 0.009 mg/dL and a myoglobin of less than 10 ng/mL. In data set [1] (serum, n = 4), this compound showed a total cholesterol of 66.0 ± 3.2 mg/dL and a triglyceride of 13.5 ± 1.8 mg/dL.
Regarding `O=C(O)C[C@H](O)C[C@H](O)/C=C/c1c(C2CC2)nc2ccccc2c1-c1ccc(F)cc1` [pitavastatin], the “limb blood flow at ischemic side (LDPI index, ratio of ischemic to normal limb)” value in data set [2] is “comparable to no-treatment group”; in data set [2] (listed as Pit) it was “no improvement of blood flow”. In the data set with hindlimb ischemia [3], the “partial pressure ratio of oxygen in arterial and venous blood during muscular exercise” value is “increases of partial pressure ratio of oxygen in arterial and venous blood were shown”. Besides, the “recovery of ischemic tissues / angiogenesis (ratio of ischemic region to normal region)” value with hindlimb ischemia [4] is recorded as “does not result in angiogenesis; also recorded: No angiogenesis”. Moreover, the “α-SMA positive vascular structure (arteriogenesis)” value in data set [5] is on record as “comparable to no-treatment group”. In addition, the “capillary density, endothelial cells (CD31 positive cells)” value in data set [6] was “comparable to no-treatment group”. The Angiographic score in the data set with hindlimb ischemia [7] amounted to 0.51±0.04.
As for FITC, in data set [8], the “nanoparticles remaining in muscular tissues (fluorescence)” value is reported as “nanoparticles remain in muscular tissues on day 7”.
